In patent publication US11422106B2, “Using 4-acetoxyphenol as a substrate for modular hydrolase biosensors” (United States Government, as represented by the …, priority 2019, dated 2022):
“And” between values parts separate entries of the source, which are not always exact repeats. Identical values can stand only once.

Assays:
[1] = target: T1, Acetylcholinesterase (AchE) (Electrophorus electricus, UniProt O42275); assay: Amperometric activity assay of immobilized AchE electrode with 4-acetoxyphenol (steady state current at 0.35 V); format: biochemical, Electrophorus electricus (electric eel); conditions: substrate 4-acetoxyphenol
T1 construct: purchased Sigma-Aldrich Type VI-S (catalogue number not given)
Description: Acetylcholinesterase (E.C. 3.1.1.7) Type VI-S from Electrophorus electricus (electric eel) with activity of 217 U mg^−1 protein, was purchased from Sigma-Aldrich. 4-Acetoxyphenol was purchased from Combi-Blocks (San Diego, Calif., USA). All other chemicals were purchased from Sigma-Aldrich (reagent grade) and used as received.
A mixture of BSA and AchE (containing 0.50 μg, or 0.11 U of the AchE, 8 μg of BSA in 10 μl of 0.06 M phosphate, pH 7.0) was spread on the working electrode of carbon SPE (RRPE1002C). The proteins were deposited on the electrode surface by air drying, and then crosslinked by adding 10 μl of 0.0021% of glutaraldehyde solution in water. The electrode was air dried at room temperature for 16 h to complete the crosslinking. To hydrate the sensor, it was stored in 0.1 M Tris-HCl, pH 7.0 for >24 h at room temperature before use.
Electrochemical evaluations were carried out in the low volume SPE cell (Pine Research Instrumentation, Durham, N.C., USA), and the conditions controlled by a DY2013 Potentiostat with DY2000 software (Digi-Ivy, Inc. Austin, Tex., USA). The working potential was set with the Ag/AgCl electrode on the SPE as the reference. […]
All evaluations were carried out at 22±2° C. The current in amperometric determination was recorded for 150 s. […] The average of the readings between 120 s and 150 s was used as the steady-state current. […]

[2] = target: T1, Acetylcholinesterase (AchE); assay: Speciation of As(III)/As(V) mixtures with the AchE sensor versus ICP-AES; format: biochemical, Electrophorus electricus (electric eel); conditions: 5 μM As(V) mixed with 0-20 μM As(III), 0.1 M Tris-HCl pH 8.0
[3] = target: T1, Acetylcholinesterase (AchE); format: biochemical, Electrophorus electricus (electric eel)
[4] = Hydrolase activity of commercial enzymes with 4-acetoxyphenol as substrate; format: biochemical
Description: Instead of, or in addition to, AchE, the preferred biosensors of the present subject matter can utilize a wide range of enzyme(s). Table 1 set forth below lists a representative list of enzymes suitable for use in the biosensors of the present subject matter. The preferred biosensors can utilize one or more of these enzyme(s) instead of, or in addition to, AchE. It is also contemplated that other enzyme(s) could potentially be used in the biosensors of the present subject matter.

T1 sequence (O42275 24-633): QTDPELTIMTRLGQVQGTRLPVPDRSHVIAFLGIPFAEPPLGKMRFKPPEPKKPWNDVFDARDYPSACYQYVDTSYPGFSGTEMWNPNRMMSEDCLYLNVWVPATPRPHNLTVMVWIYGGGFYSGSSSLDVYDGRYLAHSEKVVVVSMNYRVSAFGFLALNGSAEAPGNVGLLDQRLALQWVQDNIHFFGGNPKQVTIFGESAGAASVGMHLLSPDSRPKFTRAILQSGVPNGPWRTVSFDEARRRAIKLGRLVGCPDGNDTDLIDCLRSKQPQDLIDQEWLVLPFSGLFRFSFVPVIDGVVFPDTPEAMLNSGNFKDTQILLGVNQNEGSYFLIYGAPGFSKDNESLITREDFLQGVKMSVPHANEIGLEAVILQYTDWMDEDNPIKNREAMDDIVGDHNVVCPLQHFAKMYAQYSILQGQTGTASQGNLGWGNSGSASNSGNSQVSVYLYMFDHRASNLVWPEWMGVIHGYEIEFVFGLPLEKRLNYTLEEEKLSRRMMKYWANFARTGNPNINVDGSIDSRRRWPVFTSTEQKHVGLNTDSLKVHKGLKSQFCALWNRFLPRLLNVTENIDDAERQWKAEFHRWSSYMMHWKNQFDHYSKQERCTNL

CC(=O)Oc1ccc(O)cc1 [4-acetoxyphenol]
Vmax (Michaelis-Menten fit of steady state current) [1]: 24.2±1.1 μA
current density corresponding to Vmax [1]: 121+5.25 μA cm^−2

O.O.O.O.O.O.O.O=[As]([O-])([O-])O.[Na+].[Na+] [As(V), Na2HAsO4.7H2O]
sensitivity of the AchE sensor to the species [2]: not sensitive

sodium arsenite [As(III)]
estimated inhibition (from linear regression) [3]: 50.7±5.7%
inhibition [3]: about 55%
maximum inhibition [3]: 69.3% and 65.7%
IMax ([3]; pH 8): 70-75%
Ki ([3]; pH 8): 61.6 µM
k1 (reversible pseudo-first order model) ([3]; pH 8): 2840 M⁻¹ min⁻¹
second (dissociation) rate constant of the reversible pseudo-first order model, symbol not given ([3]; pH 8): 0.175 M⁻¹

B1: Palatase 20000 L: Lipase, Novozyme, Rhizomucor miehei (protein, UniProt P19515 95-363, looked up)
Lipase: SIDGGIRAATSQEINELTYYTTLSANSYCRTVIPGATWDCIHCDATEDLKIIKTWSTLIYDTNAMVARGDSEKTIYIVFRGSSSIRNWIADLTFVPVSYPPVSGTKVHKGFLDSYGEVQNELVATVLDQFKQYPSYKVAVTGHSLGGATALLCALDLYQREEGLSSSNLFLYTQGQPRVGDPAFANYVVSTGIPYRRTVNERDIVPHLPPAAFGFLHAGEEYWITDNSPETVQVCTSDLETSDCSNSIVPFTSVLDHLSYFGINTGLCT
Activity with 4-Acetoxyphenol [4]: 3.43 µmol/mg/min

B2: Alcalase 2.5 Type DX: Subtilisin, Novozyme, Bacillus licheniformis (protein, UniProt P00780 106-379, looked up)
Subtilisin Carlsberg: AQTVPYGIPLIKADKVQAQGFKGANVKVAVLDTGIQASHPDLNVVGGASFVAGEAYNTDGNGHGTHVAGTVAALDNTTGVLGVAPSVSLYAVKVLNSSGSGSYSGIVSGIEWATTNGMDVINMSLGGASGSTAMKQAVDNAYAKGVVVVAAAGNSGSSGNTNTIGYPAKYDSVIAVGAVDSNSNRASFSSVGAELEVMAPGAGVYSTYPTNTYATLNGTSMASPHVAGAAALILSKHPNLSASQVRNRLSSTATYLGSSFYYGKGLINVEAAAQ
modifications: commercial Novozymes enzyme preparation
notes: Subtilisin, Novozyme, Bacillus licheniformis
Activity with 4-Acetoxyphenol [4]: 1.93 µmol/mg/min

B3: Lipolase 100 L: Lipase, Novozyme, Thermomyces lanuginosus (protein, UniProt O59952 23-291, looked up)
Lipase: EVSQDLFNQFNLFAQYSAAAYCGKNNDAPAGTNITCTGNACPEVEKADATFLYSFEDSGVGDVTGFLALDNTNKLIVLSFRGSRSIENWIGNLNFDLKEINDICSGCRGHDGFTSSWRSVADTLRQKVEDAVREHPDYRVVFTGHSLGGALATVAGADLRGNGYDIDVFSYGAPRVGNRAFAEFLTVQTGGTLYRITHTNDIVPRLPPREFGYSHSSPEYWIKSGTLVPVTRNDIVKIEGIDATGGNNQPNIPDIPAHLWYFGLIGTCL
modifications: commercial Novozymes enzyme preparation
notes: Lipase, Novozyme, Thermomyces lanuginosus
Activity with 4-Acetoxyphenol [4]: 1.59 µmol/mg/min
